Experiments:
[1] = species on record: Homo sapiens; assay: Selectivity ratio of IC50 for human nAChR alpha3/beta4 receptor to IC50 for human nAChR alpha4/beta2 receptor
[2] = target: Neuronal acetylcholine receptor; alpha3/beta4 (Homo sapiens, UniProt P30926+P32297); assay: Antagonist activity at human nAChR alpha3/beta4 receptor expressed in HEK ts201 cells assessed as calcium accumulation by fluorescence analysis; format: functional, cell-based
[3] = target: Neuronal acetylcholine receptor; alpha4/beta2 (Homo sapiens, UniProt P17787+P43681); assay: Antagonist activity at human nAChR alpha4/beta2 receptor expressed in HEK ts201 cells assessed as calcium accumulation by fluorescence analysis; format: functional, cell-based
Neuronal acetylcholine receptor; alpha4/beta2, sequence (P17787 whole entry): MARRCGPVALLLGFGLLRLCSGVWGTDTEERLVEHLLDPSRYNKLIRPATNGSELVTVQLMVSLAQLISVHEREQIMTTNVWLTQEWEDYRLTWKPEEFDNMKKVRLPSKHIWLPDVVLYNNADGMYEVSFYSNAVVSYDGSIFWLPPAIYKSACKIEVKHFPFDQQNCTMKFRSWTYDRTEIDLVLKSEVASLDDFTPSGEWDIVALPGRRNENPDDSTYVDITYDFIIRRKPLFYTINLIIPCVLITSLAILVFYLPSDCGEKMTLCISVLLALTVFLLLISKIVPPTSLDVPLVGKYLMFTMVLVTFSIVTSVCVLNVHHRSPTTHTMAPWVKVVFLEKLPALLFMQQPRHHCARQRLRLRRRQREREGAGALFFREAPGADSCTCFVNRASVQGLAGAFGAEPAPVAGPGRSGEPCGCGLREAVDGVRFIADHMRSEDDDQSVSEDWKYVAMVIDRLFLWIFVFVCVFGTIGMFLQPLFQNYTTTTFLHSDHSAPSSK
Neuronal acetylcholine receptor; alpha4/beta2, sequence (P43681 whole entry): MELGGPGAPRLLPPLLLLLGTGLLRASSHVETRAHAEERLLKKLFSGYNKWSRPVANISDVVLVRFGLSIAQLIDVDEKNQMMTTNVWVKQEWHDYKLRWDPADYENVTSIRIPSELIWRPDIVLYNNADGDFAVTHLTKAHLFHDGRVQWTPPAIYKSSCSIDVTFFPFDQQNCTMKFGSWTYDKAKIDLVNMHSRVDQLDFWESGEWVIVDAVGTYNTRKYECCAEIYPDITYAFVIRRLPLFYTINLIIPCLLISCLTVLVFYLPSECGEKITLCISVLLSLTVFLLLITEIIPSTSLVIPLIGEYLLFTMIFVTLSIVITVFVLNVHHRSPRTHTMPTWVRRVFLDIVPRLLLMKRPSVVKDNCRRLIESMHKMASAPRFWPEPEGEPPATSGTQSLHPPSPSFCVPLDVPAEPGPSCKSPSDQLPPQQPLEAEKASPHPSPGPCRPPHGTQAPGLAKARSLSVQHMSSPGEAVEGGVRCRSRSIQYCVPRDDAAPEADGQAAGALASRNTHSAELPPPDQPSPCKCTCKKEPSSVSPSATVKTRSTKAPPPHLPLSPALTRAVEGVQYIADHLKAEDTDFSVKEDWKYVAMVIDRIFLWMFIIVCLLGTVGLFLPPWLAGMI

[4] = Lipophilicity, log P of the compound; format: physicochemical; conditions: octanol/water
[5] = species on record: Homo sapiens; assay: Selectivity ratio of pIC50 for human nAChR alpha3/beta4 receptor to pIC50 for human nAChR alpha4/beta2 receptor

Neuronal acetylcholine receptor; alpha3/beta4, sequence (P30926 whole entry): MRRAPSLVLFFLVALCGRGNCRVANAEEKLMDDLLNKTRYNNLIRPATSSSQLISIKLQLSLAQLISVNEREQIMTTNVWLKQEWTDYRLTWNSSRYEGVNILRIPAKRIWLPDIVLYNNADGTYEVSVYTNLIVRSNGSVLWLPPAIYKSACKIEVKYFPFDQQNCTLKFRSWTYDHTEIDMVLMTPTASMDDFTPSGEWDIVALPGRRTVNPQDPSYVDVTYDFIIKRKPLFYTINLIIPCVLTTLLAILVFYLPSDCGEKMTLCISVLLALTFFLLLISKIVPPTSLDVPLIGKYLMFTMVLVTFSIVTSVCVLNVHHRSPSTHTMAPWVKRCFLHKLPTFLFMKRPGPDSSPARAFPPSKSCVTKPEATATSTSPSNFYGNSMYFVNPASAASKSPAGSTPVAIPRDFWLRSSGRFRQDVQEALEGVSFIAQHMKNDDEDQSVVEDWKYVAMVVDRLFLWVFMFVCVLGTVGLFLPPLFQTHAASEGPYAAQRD
Neuronal acetylcholine receptor; alpha3/beta4, sequence (P32297 whole entry): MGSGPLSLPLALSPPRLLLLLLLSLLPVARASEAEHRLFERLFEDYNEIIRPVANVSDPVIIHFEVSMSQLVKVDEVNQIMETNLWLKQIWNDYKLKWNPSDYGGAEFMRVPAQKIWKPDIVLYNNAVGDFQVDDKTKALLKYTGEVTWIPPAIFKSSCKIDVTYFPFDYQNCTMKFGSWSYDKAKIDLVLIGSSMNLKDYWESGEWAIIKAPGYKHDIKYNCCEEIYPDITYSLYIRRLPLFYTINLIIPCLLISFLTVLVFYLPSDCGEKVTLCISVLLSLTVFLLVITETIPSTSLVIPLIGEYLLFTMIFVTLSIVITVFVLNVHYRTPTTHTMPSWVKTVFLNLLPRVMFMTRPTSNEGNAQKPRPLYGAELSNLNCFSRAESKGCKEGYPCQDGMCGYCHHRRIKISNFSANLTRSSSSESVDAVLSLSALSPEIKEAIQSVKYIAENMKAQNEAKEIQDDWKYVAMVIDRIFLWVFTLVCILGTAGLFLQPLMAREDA

SMILES	Ratio IC50 [1]	IC50 ([2]; read-out: IC50) [µM]	IC50 ([3]; read-out: IC50) [µM]	logP [4]	Ratio pIC50 [5]	IC50 ([2]; read-out: pIC50 (converted)) [µM]	IC50 ([3]; read-out: pIC50 (converted)) [µM]
O=C(OCC1CCCN(C(=O)CCc2ccccc2)C1)c1ccccc1C(F)(F)F (stereo not given)	2.1	6.3	3.9				
O=C(Nc1ccncn1)c1ccccc1-c1ccccc1	1.6	39.6	25.1				
O=C(OC1CCCN(C(=O)CCc2ccccc2)C1)c1ccccc1-c1ccccc1 (stereo not given)	1.5	6	4.3				
O=C(OCC1CCN(C(=O)CCc2ccccc2)CC1)c1ccccc1-c1ccccc1	1.4	9.4	5.9				
O=C(NCc1cccc2ccccc12)c1ccccc1-c1ccccc1	> 10	> 100	13.9	5			
O=C(NCc1ccccc1)c1ccccc1-c1ccccc1	1	7.6	7.5				
O=C(Nc1cccc2ccccc12)c1ccccc1-c1ccccc1	1.8	18.2	10.7				
O=C(Nc1ccccn1)c1ccccc1-c1ccccc1	1.3	17.5	13.6				
O=C(Nc1ccccc1)c1ccccc1-c1ccccc1	1.6	10.7	6.9				
O=C(OCC1CCCN(CCCn2cc(-c3ccccc3)nn2)C1)c1ccccc1-c1ccccc1 (single isomer, unassigned)					1.78	389	6.46
O=C(OCC1CCCN(CCCc2ccccc2)C1)c1ccccc1-c1ccccc1 (stereo not given)		> 100	13.5	5.9	3.87		

— ChEMBL document CHEMBL1949658, “3D-QSAR and 3D-QSSR models of negative allosteric modulators facilitate the design of a novel selective antagonist of human α4β2 neuronal nicotinic acetylcholine receptors” (Bioorg Med Chem Lett, 2012)
